Assay results from patent US9643969B2, “(aza)indolizine derivative and pharmaceutical use thereof” (KISSEI PHARMACEUTICAL CO., LTD., priority 2010, dated 2017).

How the values were obtained:
[1] = target: T1, Xanthine oxidase (from bovine milk) (Bos taurus, UniProt P80457); experiment: Xanthine oxidase inhibitory activity; type: biochemical; conditions: xanthine 200 μM added at 100 μL/well, 10 minutes at room temperature, absorbance at 290 nm
T1 construct: Xanthine oxidase (from bovine milk, manufactured by Sigma); purchased Sigma; host or cells: bovine milk
T1 sequence (P80457 whole entry): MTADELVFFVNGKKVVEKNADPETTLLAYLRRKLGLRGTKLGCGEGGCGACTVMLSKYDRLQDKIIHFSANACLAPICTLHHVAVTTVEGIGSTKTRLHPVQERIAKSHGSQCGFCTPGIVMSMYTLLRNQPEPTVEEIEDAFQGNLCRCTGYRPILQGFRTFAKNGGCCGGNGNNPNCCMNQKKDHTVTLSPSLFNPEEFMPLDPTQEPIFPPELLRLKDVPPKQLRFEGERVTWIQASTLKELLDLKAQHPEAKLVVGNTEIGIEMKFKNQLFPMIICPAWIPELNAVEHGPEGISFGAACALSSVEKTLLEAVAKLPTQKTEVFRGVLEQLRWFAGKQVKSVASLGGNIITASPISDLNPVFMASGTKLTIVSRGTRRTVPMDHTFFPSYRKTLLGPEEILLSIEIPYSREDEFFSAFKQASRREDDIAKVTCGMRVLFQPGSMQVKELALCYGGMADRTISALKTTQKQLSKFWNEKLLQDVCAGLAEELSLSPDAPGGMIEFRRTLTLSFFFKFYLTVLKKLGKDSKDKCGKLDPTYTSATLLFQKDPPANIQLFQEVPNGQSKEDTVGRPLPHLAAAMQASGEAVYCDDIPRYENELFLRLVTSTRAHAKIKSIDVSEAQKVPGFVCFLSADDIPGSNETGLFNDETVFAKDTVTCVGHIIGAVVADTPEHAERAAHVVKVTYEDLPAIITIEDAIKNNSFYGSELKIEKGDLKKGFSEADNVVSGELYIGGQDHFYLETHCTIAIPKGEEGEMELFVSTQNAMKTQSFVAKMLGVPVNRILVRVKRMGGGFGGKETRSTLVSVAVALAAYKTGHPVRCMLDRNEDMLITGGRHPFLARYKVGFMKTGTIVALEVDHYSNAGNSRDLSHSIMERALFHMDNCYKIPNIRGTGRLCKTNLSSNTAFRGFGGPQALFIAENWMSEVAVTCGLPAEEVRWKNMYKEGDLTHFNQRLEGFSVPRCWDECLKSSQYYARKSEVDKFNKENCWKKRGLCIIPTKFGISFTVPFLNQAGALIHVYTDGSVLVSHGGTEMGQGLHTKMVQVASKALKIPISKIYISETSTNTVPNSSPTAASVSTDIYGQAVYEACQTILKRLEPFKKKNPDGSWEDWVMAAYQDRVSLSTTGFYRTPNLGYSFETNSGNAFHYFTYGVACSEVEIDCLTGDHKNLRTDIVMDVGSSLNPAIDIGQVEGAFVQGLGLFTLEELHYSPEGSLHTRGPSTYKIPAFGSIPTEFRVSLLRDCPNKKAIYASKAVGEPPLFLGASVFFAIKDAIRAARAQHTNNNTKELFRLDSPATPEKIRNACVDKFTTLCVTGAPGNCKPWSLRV
Description: Xanthine Oxidase Inhibitory Activity
(1) Preparation of Test Compounds
Test compounds were dissolved in dimethyl sulfoxide (DMSO) (manufactured by Wako pure chemical) at 40 mM concentration and then diluted to intended concentrations with phosphate-buffered saline (PBS).
(2) Method of Measurement
Xanthine oxidase (from bovine milk, manufactured by Sigma) was prepared with phosphate-buffered saline (PBS) at 0.02 units/mL, and then the solution was added to 96-well plates at 50 μL/well. In addition, test compounds diluted with PBS were added at 50 μL/well. Xanthine (manufactured by Wako pure chemical) at 200 μM prepared with PBS was added at 100 μL/well, and the reaction was conducted for 10 minutes at room temperature. Absorbance at 290 nm was measured by using a microplate reader SpectraMax Plus 384 (manufactured by Molecular device). The absorbance under a condition without xanthine is 0%, and control without test compounds is 100%. Fifty % inhibitory concentration of a test compound (IC50) was calculated (Table 4). “Ex. No” in the table indicates Example number.

Acute toxicity test = type: in vivo; conditions: 300 mg/kg orally, male ICR mice, 24 hours after administration
Description: Test compounds of Examples 2 and 12 (300 mg/kg) suspended in 0.5% methylcellulose solution were orally administered to male ICR mice (7-week-old, 5 mice per group), and the general condition during 24 hours after administration was observed.

human URAT1 = target: T2, human URAT1 (Homo sapiens, UniProt Q96S37); experiment: Inhibitory activity of uric acid transport with human URAT1-expressing cells; type: cell-based; conditions: 10 μM test compound; URAT1-expressing HEK293 cells; 14C uric acid 50 μM, 2 minutes at 37° C.; read-out: percent inhibition of uric acid uptake
T2 construct: expressed in transfected cells; host or cells: HEK293 cells
T2 sequence (Q96S37 1-553): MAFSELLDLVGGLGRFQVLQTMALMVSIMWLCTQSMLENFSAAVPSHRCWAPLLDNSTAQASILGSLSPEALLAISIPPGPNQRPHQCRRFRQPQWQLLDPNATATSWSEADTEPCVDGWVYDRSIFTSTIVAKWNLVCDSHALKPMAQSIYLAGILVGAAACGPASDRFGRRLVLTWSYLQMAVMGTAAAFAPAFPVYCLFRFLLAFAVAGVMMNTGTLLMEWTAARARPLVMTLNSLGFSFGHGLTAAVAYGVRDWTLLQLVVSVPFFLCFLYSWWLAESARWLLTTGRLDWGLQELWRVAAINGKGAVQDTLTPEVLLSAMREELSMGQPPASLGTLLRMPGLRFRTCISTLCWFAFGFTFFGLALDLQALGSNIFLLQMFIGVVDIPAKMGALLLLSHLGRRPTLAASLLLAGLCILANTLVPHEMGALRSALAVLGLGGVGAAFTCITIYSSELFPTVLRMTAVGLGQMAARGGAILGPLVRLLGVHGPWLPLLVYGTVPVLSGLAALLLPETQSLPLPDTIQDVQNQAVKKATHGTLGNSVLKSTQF
Description: Inhibitory Activity of Uric Acid Transport with Human URAT1-Expressing Cells
(1) Cells Used in the Test
URAT1-expressing HEK293 cells (HEK293 cells transfected with vector containing human URAT1 cDNA) and control cells (HEK293 cells transfected with vector alone) were used.
URAT1-expressing cells and control cells were seeded in collagen I-coated 24-well plates (manufactured by BD FALCON) at 1 to 4×10^5 cells/well, and cultured in CO2 incubator (37° C., CO2: 5%) for 1 to 3 days, and then the following measurement of uric acid transport was conducted. In addition, Dulbecco's Modified Eagle Medium (manufactured by Invitrogen) containing 9% fetal bovine serum (manufactured by Invitrogen), antibiotic-antimycotic (manufactured by Invitrogen) and 2 mmol/L L-glutamine were used for the culture.
(2) Preparation of Test Compounds
^14C-labeled uric acid (^14C uric acid) (manufactured by American Radiolabeled Chemicals, Inc.) was dissolved in Hanks' balanced salt solution (HBSS) (manufactured by Invitrogen) to prepare HBSS containing ^14C uric acid at 50 μM. Test compounds were dissolved in DMSO and then diluted to 1000-fold with the prepared HBSS containing ^14C uric acid above to prepare ^14C uric acid solution containing the indicated concentration of test compounds (final concentration of DMSO: 0.1%). ^14C uric acid solution containing 0.1% DMSO was prepared as a control.
(3) Measurement of Uric Acid Transport
After the medium was removed from the plates in which cells were seeded, and 1 mL of HBSS was added to the cells. After the HBSS was removed, 0.3 mL of HBSS was newly added to the cells, which were incubated at 37° C. for 15 minutes. After the HBSS was removed, 0.3 mL of ^14C uric acid solution containing 0.1% DMSO or test compounds was added to the cells, which were then incubated at 37° C. for 2 minutes. After the incubation, the solution was removed, and the cells were washed once with 1 mL of ice-cold phosphate-buffered saline containing 0.2% BSA, and washed twice with 1 mL of ice-cold PBS. After the PBS was removed, the cells were lysed by addition of 0.5 mL of 0.1 mol/L NaOH aqueous solution for each well. The cell lysates (0.3 mL/well) were transferred into glass vials, and mixed with 10 mL of a scintillator (Hionic-Fluor, manufactured by Perkin Elmer). The radioactivity was measured by means of a liquid scintillation counter.
(4) Protein Determination
Protein concentration in the cell lysates was determined by BCA Protein Assay Kit (manufactured by Pierce) and then amount of protein (mg/well) was calculated.
(5) Calculation of the Percent Inhibition of Uric Acid Uptake for Each Compound
Uric acid uptake activity in each well was calculated by the following formula. Uric acid uptake activity (p mol/mg protein)=radioactivity (dpm/well)/[amount of protein (mg/well)×concentration of radioactivity in HBSS containing ^14C uric acid (dpm/p mol)]
Percent inhibition was calculated according to the following formula. Percent inhibition (%)=[1−(B−C)/(A−C)]×100 • A: Uric acid uptake activity in URAT1-expressing HEK293 cells in the presence of 0.1% DMSO • B: Uric acid uptake activity in URAT1-expressing HEK293 cells in the presence of test compounds • C: Uric acid uptake activity in control cells in the presence of 0.1% DMSO (6) Results

[2] = Hypouricemic effect (serum uric acid levels in rats); type: in vivo; conditions: oral administration at 1 mg/kg; male CD (SD) IGS rats; serum at 2 hours after administration
Description: (1) Method of Measurement
Test compounds (1 mg/kg) suspended in 0.5% methylcellulose solution were orally administered to overnight fasted male CD (SD) IGS rats (5-week-old, Charles River Japan). At 2 hours after administration, blood was collected under ether anesthesia from abdominal aorta, and serum was separated according to a general method. Serum uric acid levels were determined by use of uric acid measurement kit (Uric acid C-Test Wako: manufactured by Wako pure chemical), and percent decrease in uric acid was calculated according to the formula described below. Percent decrease in uric acid (%)=(Serum uric acid levels in control animals−Serum uric acid levels in animals administered test compounds)×100/Serum uric acid levels in control animals (2) Results

| SMILES | IC50 [1] | general condition (Acute toxicity test) | inhibition at 10 µM (human URAT1) | percent decrease in uric acid [2] |
| --- | --- | --- | --- | --- |
| N#Cc1cc(-c2ccc(C(=O)O)cc2)c2cccnn12 [Example 1, 4-(7-Cyanopyrrolo[1,2-b]pyridazine-5-yl)benzoic acid] | 7 nM |  |  |  |
| N#Cc1cc(-c2ccc(C(=O)O)c(O)c2)c2cccnn12 [Example 2, 4-(7-Cyanopyrrolo[1,2-b]pyridazine-5-yl)-2-hydroxy benzoic acid] | 5 nM | no abnormalities in general conditions were observed |  |  |
| Cc1ccc2c(-c3ccc(C(=O)O)c(O)c3)cc(C#N)n2n1 [Example 3] | 5 nM |  | ≥ 50% | not less than 60% |
| COc1ccc2c(-c3ccc(C(=O)O)c(O)c3)cc(C#N)n2n1 [Example 6] | 3 nM |  | ≥ 50% |  |
| N#Cc1cc(-c2ccc(C(=O)O)cc2)c2ccccn12 [Example 7] | 8 nM |  |  |  |
| N#Cc1cc(-c2ccc(C(=O)O)c(O)c2)c2ccccn12 [Example 8] | 12 nM |  | ≥ 50% |  |
| N#Cc1cc(-c2ccc(C(=O)O)c(O)c2)c2ccc(F)cn12 [Example 9] | 4 nM |  | ≥ 50% |  |
| N#Cc1cc(-c2ccc(C(=O)O)cc2)n2ncccc12 [Example 10] | 12 nM |  |  |  |
| Cc1ccnn2c(-c3ccc(C(=O)O)cc3)cc(C#N)c12 [Example 11, 4-(5-Cyano-4-methylpyrrolo[1,2-b]pyridazine-7-yl)benzoic acid] | 10 nM |  |  |  |
| N#Cc1cc(-c2ccc(C(=O)O)c(O)c2)n2ncccc12 [Example 12] | 4 nM | no abnormalities in general conditions were observed | ≥ 50% |  |
| N#Cc1cn(-c2ccc(C(=O)O)c(O)c2)c2cccnc12 [Example 15, 4-(3-Cyanopyrrolo[3,2-b]pyridine-1-yl)-2-hydroxy benzoic acid] | 10 nM |  |  |  |
| Cc1ccc2c(-c3ccc(C(=O)O)c(O)c3)cc(C#N)n2c1C [Example 16] | 13 nM |  | ≥ 50% |  |
